{
  "source": "patent US9487462B2",
  "about": "“Inhibitors of matrix metalloproteinases” (PharmaHungary 2000 Kft., priority 2010, dated 2016)",
  "key": {"MMP1": {"molecular_target": "MMP1 (Homo sapiens (Human), UniProt P03956)", "sequence (P03956 100-469, species assumed)": "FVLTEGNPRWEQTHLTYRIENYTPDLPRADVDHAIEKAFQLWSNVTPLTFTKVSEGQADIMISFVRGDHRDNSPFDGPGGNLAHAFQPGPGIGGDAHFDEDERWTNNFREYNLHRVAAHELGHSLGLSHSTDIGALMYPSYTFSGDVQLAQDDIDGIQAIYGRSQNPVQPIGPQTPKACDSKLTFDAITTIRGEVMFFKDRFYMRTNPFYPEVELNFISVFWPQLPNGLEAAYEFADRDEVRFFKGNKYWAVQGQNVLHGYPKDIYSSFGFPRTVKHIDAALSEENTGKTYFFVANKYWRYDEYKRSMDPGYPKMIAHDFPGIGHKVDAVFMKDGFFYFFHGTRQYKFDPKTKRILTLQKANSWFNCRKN", "test": "MMP activity assay (fluorogenic substrate), MMP1", "type": "biochemical"}, "[1]": {"system": "neonatal rat cardiac myocytes", "test": "Cytoprotective effect in cardiac myocytes subjected to hypoxia and reoxygenation", "type": "cell-based", "summary_of_the_method": "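Day-3 neonatal rat cardiomyocytes subjected to 4 h simulated ischemia (95% N2/5% CO2, hypoxic solution, 37 °C) or normoxia, then reoxygenation. MMP inhibitors at EC5, EC10, EC20 and EC50 (DMSO vehicle; ilomastat 0.5 µM control) present throughout; viability by calcein-AM relative to digitonin/propidium iodide total cell count.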"}, "MMP-2": {"molecular_target": "MMP-2 (Rattus norvegicus (Rat), UniProt P33436)", "sequence (P33436 110-662)": "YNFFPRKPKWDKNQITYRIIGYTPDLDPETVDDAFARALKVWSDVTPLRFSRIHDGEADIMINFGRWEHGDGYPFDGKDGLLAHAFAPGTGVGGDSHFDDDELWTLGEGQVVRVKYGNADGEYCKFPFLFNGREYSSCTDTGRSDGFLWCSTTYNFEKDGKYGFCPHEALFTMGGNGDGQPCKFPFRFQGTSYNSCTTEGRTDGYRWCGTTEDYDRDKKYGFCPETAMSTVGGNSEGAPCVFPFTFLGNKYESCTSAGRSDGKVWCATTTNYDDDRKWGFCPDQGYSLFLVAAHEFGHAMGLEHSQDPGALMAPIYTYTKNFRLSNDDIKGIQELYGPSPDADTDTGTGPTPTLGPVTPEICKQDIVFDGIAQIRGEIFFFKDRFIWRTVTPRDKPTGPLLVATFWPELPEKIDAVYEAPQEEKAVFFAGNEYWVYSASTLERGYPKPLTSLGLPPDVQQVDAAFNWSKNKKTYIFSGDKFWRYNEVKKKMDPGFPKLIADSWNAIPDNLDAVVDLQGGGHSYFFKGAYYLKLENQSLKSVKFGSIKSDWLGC", "test": "In vitro zymography assay (gelatin), MMP-2", "type": "biochemical", "method": "MMP-2 and MMP-9 enzymes were isolated from rat hearts and from rat spleen while human, recombinant MMP-1 and MMP-13 enzymes used were commercial. MMP-2, -9, -13 enzymes were separated by electrophoresis during non-reducing conditions on 8% SDS-polyacrylamide gels copolymerized with 2 mg/ml gelatin from porcine skin (Sigma Aldrich) while MMP-1 was separated under the same conditions on 8% SDS-polyacrylamide gels copolymerized with 2 mg/ml casein (Sigma Aldrich). […] In case of MMP-13 p-aminophenylmercuric acetate (APMA) was used for enzyme activation at 37° C. for 30 min. After electrophoresis, gels were washed in 2.5% Triton-X 100 with agitation and then incubated for 20 hrs at 37° C. in enzyme incubation buffer (50 mM Tris-HCl, pH 7.5, containing 5 mM CaCl2, 200 mM NaCl) with or without MMP inhibitor. Zymographic gels were stained in Coomassie Brilliant Blue R-250 and de-stained. Gelatin and casein zymograms were scanned. MMP activity is detected as a white zone on a blue background and the clear bands in the gel can be quantified by densitometry. The obtained density values were measured and % inhibition values calculated (Kupai et al., 2010). The table below summarizes the prescreen inhibition values determined for different MMP inhibitors on MMP1, -2, -9, -13."}, "MMP13": {"molecular_target": "MMP13 (Homo sapiens (Human), UniProt P45452)", "test": "MMP activity assay (fluorogenic substrate), MMP13 catalytic domain", "type": "biochemical", "conditions": "Table 2; read-out: MMP13 IC50"}, "[2]": {"test": "Cytotoxicity, alamarBlue viability, HCT116", "type": "cell-based", "conditions": "human, HCT116 colon tumor cells, 48 hours incubation, read-out: HCT116 LC50", "summary_of_the_method": "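Cells exposed to compound dilutions for 48 hours, then alamarBlue added for 4 hours; fluorescence read at ex 540/em 590 nm. IC50 from six concentrations run in duplicate.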"}, "MMP9": {"molecular_target": "MMP9 (Homo sapiens, UniProt P14780)", "test": "MMP activity assay (fluorogenic substrate), MMP9 catalytic domain", "type": "biochemical", "conditions": "Table 2"}},
  "note": "Read-outs that look alike come from different tables or passages of the source.",
  "data": [
    {"smiles": "O=C(O)c1csc(CN(Cc2ccc(F)cc2)Cc2ccc(OCc3cccnc3)cc2)n1", "note": "[Compound 1, 2-({[(4-Fluorophenyl)methyl]({[4-(pyridin-3-ylmethoxy)phenyl]methyl})amino}methyl)-1,3-thiazole-4-carboxylic acid]", "values": [
      {"measurement": "IC50", "setting": "MMP1; Table 2, read-out: MM1 IC50", "value": 51, "unit": "µM"},
      {"measurement": "IC50", "setting": "MMP1; read-out: IC50 on MMP1", "value": 46, "unit": "µM"},
      {"measurement": "Cytoprotective effect, % cell survival as compared to vehicle DMSO", "setting": "[1]; normoxia, EC5 concentration 2.6 microM", "value": "120 ± 2", "unit": "%"},
      {"measurement": "Cytoprotective effect, % cell survival as compared to vehicle DMSO", "setting": "[1]; normoxia, EC10 concentration 6.3 microM", "value": "99 ± 2", "unit": "%"},
      {"measurement": "Cytoprotective effect, % cell survival as compared to vehicle DMSO", "setting": "[1]; normoxia, EC20 concentration 10.4 microM", "value": "94 ± 2", "unit": "%"},
      {"measurement": "Cytoprotective effect, % cell survival as compared to vehicle DMSO", "setting": "[1]; normoxia, EC50 concentration 17.7 microM", "value": "86 ± 2", "unit": "%"},
      {"measurement": "Cytoprotective effect, % cell survival as compared to vehicle DMSO", "setting": "[1]; simulated ischemia, EC5 concentration 2.6 microM", "value": "125 ± 6", "unit": "%"},
      {"measurement": "Cytoprotective effect, % cell survival as compared to vehicle DMSO", "setting": "[1]; simulated ischemia, EC10 concentration 6.3 microM", "value": "109 ± 2", "unit": "%"},
      {"measurement": "Cytoprotective effect, % cell survival as compared to vehicle DMSO", "setting": "[1]; simulated ischemia, EC20 concentration 10.4 microM", "value": "106 ± 2", "unit": "%"},
      {"measurement": "Cytoprotective effect, % cell survival as compared to vehicle DMSO", "setting": "[1]; simulated ischemia, EC50 concentration 17.7 microM", "value": "97 ± 2", "unit": "%"},
      {"measurement": "inhibition at 1 µM", "setting": "MMP-2; 1 μM, % ± SD, read-out: % inhibition MMP-2 (72 kDa)", "value": 100, "unit": "%"},
      {"measurement": "inhibition at 100 µM", "setting": "MMP-2; 100 μM, % ± SD, read-out: % inhibition MMP-2 (72 kDa)", "value": 100, "unit": "%"},
      {"measurement": "selectivity in the inhibition of different MMP isoenzymes", "setting": "MMP-2; summary in words, MMP1, MMP2, MMP9, MMP13", "value": "highly selective for MMP2"},
      {"measurement": "IC50", "setting": "MMP-2; zymography, Table 8, read-out: IC50 on MMP-2", "value": 11.2, "unit": "µM"},
      {"measurement": "IC50", "setting": "MMP13", "value": 2.5, "unit": "µM"},
      {"measurement": "CC50 at 48 h", "setting": "[2]", "value": 11, "unit": "µM"},
      {"measurement": "IC50", "setting": "MMP9", "value": 37, "unit": "µM"}
    ]}
  ]
}
